Assays:
[1] = target: CYP2C19 (Homo sapiens, UniProt P33261); assay: CYP2C19 inhibition, S-mephenytoin probe in human liver microsomes
Description: (§1) The total volume of the in vitro metabolic incubation system is 200 μL. The probe substrate concentration in the system is shown in Supplementary Table S1. […] The reaction sample was preheated in a constant temperature mixer at 37°C. Then NADP^+ was added to the system to initiate the reaction. The reaction time is 30 min, and 100 μL acetonitrile will be added on time to quickly terminate the reaction, followed by centrifugation at 4°C and 20,000 g for 20 min. The supernatant was analyzed using liquid chromatography tandem mass spectrometry (LC-MS/MS), and the activity of CYP enzymes was evaluated by the generation of probe metabolites. The mass spectrometry information of probe substrates is shown in Supplementary Table S3.
(§2) The isolated triterpenoids (1–66) were used to establish a compounds library. The inhibitory effects of 66 triterpenoids from G. lucidum on seven subtypes of CYP enzymes (CYP1A2, 2A6, 2D6, 2B6, 2C9, 2C19, 3A4) were evaluated followed the above-mentioned experimental procedures.
(§3) Table S1. The information of probes for CYPs activity assay

[2] = target: CYP3A4 (Homo sapiens, UniProt P08684); assay: CYP3A4 inhibition, probe/drug metabolism in human liver microsomes
Description: as §1, §2
For 16 clinical drugs metabolized by CYP enzymes, potential DDI studies were conducted on triterpenoids (6, 25) of G. lucidum, and IC50 values were measured.
Clinical drugs: Phenacetin, melatonin, clozapine and riluzole are metabolized by CYP1A2. Bupropion, artemisinin, efavirenz and sertraline are metabolized by CYP2B6. Diclofenac, valsartan, glimepiride and glibenclamide are metabolized by CYP2C9. Midazolam, imatinib, simvastatin and diltiazem are metabolized by CYP3A4.
as §3
Table S2. Information of clinical drugs

[3] = target: T1, CYP2A6 (Homo sapiens, UniProt P11509); assay: CYP2A6 inhibition, coumarin probe in human liver microsomes; details: human, human liver microsomes, pH 7.4, probe coumarin 2 μM, Residual activity (%) CYP2A6, HLM 0.5 mg/mL
T1 sequence (P11509 1-494): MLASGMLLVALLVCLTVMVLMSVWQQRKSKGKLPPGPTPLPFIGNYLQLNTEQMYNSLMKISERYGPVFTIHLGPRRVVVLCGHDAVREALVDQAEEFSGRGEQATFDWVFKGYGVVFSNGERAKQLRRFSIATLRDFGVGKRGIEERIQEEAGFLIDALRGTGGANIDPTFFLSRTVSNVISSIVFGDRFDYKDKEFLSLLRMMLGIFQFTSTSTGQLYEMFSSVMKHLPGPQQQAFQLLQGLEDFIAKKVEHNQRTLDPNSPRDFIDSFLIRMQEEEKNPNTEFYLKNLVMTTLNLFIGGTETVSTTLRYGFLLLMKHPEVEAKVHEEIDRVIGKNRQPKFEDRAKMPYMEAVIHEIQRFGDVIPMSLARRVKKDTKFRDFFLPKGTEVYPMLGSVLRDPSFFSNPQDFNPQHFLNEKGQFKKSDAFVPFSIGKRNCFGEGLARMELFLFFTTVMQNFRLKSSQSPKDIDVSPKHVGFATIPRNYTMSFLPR
Description: as §1, §2, §3

Sequence of CYP3A4 (P08684 whole entry): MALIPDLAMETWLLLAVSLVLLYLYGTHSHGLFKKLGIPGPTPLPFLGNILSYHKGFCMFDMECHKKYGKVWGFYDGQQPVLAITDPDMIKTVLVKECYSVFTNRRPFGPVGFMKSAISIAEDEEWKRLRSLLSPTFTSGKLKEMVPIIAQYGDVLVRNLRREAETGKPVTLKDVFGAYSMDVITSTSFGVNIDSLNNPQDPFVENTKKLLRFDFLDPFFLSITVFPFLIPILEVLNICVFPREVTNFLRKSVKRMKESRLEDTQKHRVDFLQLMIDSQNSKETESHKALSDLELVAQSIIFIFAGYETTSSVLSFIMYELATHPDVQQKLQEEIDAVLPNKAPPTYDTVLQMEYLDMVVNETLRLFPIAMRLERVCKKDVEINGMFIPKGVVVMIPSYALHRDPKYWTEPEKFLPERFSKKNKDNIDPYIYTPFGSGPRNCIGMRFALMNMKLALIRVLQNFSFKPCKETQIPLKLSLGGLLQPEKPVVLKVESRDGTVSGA
Sequence of CYP2C19 (P33261 whole entry): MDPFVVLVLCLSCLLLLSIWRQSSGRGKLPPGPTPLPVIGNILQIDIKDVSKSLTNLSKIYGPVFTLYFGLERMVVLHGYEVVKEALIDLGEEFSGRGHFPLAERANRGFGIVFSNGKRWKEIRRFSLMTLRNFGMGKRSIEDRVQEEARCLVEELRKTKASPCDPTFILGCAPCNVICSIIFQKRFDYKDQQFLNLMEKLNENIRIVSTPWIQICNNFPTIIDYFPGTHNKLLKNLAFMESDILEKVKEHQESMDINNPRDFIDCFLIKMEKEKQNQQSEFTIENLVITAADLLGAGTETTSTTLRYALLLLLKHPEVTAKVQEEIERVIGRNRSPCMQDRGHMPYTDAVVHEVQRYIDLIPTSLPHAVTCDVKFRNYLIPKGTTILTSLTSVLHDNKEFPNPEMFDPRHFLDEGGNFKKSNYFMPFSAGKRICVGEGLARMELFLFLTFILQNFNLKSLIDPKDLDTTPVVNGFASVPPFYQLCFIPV

Structure (SMILES): CC(CCC(O)C(C)(O)CO)C1CCC2(C)C3=C(C(=O)CC12C)C1(C)CCC(=O)C(C)(C)C1CC3 (centres unmarked) [Compound 25, ganodrol C]
- IC50 [1]: 15.4 µM
- activity at 30 min ([1]; human, human liver microsomes, pH 7.4, probe S-mephenytoin 50 μM, Residual activity (%) CYP2C19, HLM 0.5 mg/mL, S-mephenytoin 50 μM, 30 min): 39.2 ± 4.83%
- IC50 ([2]; IC50 against CYP 3A4, substrate midazolam 5 μM, HLM): 4.78 µM
- IC50 ([2]; IC50 against metabolism of diltiazem mediated by CYP3A4, substrate diltiazem 10 μM, 30 min): 5.12 ± 0.56 µM
- IC50 ([2]; IC50 against metabolism of imatinib mediated by CYP3A4, substrate imatinib 5 μM, 30 min): 7.57 ± 0.2 µM
- IC50 ([2]; IC50 against metabolism of simvastatin mediated by CYP3A4, substrate simvastatin 10 μM, 30 min): 4.5 ± 0.48 µM
- activity at 30 min ([2]; human, human liver microsomes, pH 7.4, probe midazolam 5 μM, Residual activity (%) CYP3A4, HLM 0.5 mg/mL, midazolam 5 μM, 30 min): 30.1 ± 1.54%
- activity at 30 min [3]: 70.1 ± 2.15%

Source: PMC11605156, “Triterpenoids from Ganoderma lucidum inhibit cytochrome P450 enzymes interfering with the metabolic process of specific clinical drugs” (Frontiers in Pharmacology, 2024)
